≈ marks a conversion by molar mass, not a printed value. Like-named read-outs stand apart in the source and are kept apart here. One block for each molecule: values may come before it.
Legend:
DNA [1] = conditions: known analogues; cited from earlier work
DNA [2] = assay: DNA-binding mode, covalent and noncovalent (statements)
DNA [3] = assay: Thermal denaturation of DNA (ΔTm), stabilization of DNA helical structure on drug binding; parameters: species or system calf thymus; conditions: for Tm (ΔTm = Tm of DNA-drug complex minus Tm of DNA): drug 1.4 × 10^-4 M, DNA (P) 1.4 × 10^-3 M, 0.01 M phosphate buffer pH 7.0, EDTA, 5% dimethyl sulfoxide
Protocol: Thermal denaturation studies were carried out according to the procedure described in J. Med. Chem., Vol. 24, p. 1052 (1981). The ΔTm values in Table II give a measure of stabilization of DNA helical structure as a consequence of drug binding.
^a ΔTm = m of DNAdrug complex minus m of DNA.
Concentraiton of drug, 1.4 × 10^-4 M; of DNA (P), 1.4 ×
10^-3 M in 0.01 M phosphate buffer (pH 7.0), 5 × 10^-3 M in
EDTA and 5% dimethyl sulfoxide.
^d Highest dose tested. These values are derived at high temperatur
(67°-75° C.) and may not always correlate with the results
of other DNA-binding studies (e.g., absorptiometric or circular dichroic).
Melting points were obtained with a Thomas-Hoover melting point apparatus at a heating rate of 2° C./min. Column chromatography was accomplished with silica gel powder (Baker No. 3405, 60-20 mesh) or acid alumina (Woelm grade 1). Limited gel-filtration work was done on Sephadex LH-20, particle size 25-100 μm (Pharmacia Fine Chemicals). Thin-layer chromatography was performed on silica gel plates (E. M. Laboratories, Inc.). Solvent systems used were (A) butanol-formic acid-H2 O (75:13:12), (B) EtOAc-acetone (3:1), and (C) Cifferri, the organic phase of the mixture EtOAc-MeOH-H2 O (20:1:20). High-performance liquid chromatography was carried out on a Varian Model 5020 gradient liquid chromatograph equipped with CD-111L chromatography data system and fitted with Varian reversed-phase C18 column with isocratic solvent systems, CH3 -CN-5 mM NH4 OAc buffer, pH 6.4 (68:32 or 62:38), pressure 80-140 atm, flow rate 1.5 mL/min, with UV-visible variable and fixed wavelength dual detectors at 254 and 466 nm. Spectra were determined on the following instruments: IR spectra were obtained with a Perkin-Elmer Model 237 Infra Cord with KBr micropellets or chloroform solutions; UV-visible spectra were obtained on a Gilford 250 spectrophotometer, which, with the addition of a base-line reference compensator (Analog Multiplexer 6064) and thermoprogrammer, auto four cell programmer and thermoelectric cell holder 2577, was used to obtain thermal denaturation curves; NMR spectra were obtained on a JOEL FQ-90-90MHZ spectrometer equipped with Fourier transform; and CD spectra were obtained on a Cary 61 spectrophotometer. All elemental analyses were within ±0.4% of the theoretical values. Actinomycin D, batch no. NCS 3053, lot L554651-0-10, was provided by Natural Products Branch, National Cancer Institute, Silver Spring, Md. Calf thymus DNA type 1 was purchased from Sigma Chemical Co.

normal CDF1 male mice = assay: Maximum tolerated dose (LD10) in normal, tumor-free CDF1 male mice; assay type: in vivo; conditions: for MTD (maximum tolerated dose, lethal for 10% of normal mice; = LD10): deaths during 21 days
Protocol: ^c MTD (maximum tolerated dose) is the lethal dose
(milligrams/kilogram) for 10% normal CDF1 male mice (18-23 g);
were calculated from a plot of log dose vs. percent mortality. Average of
two to three experiments.
Biological Experiments. Determination of LD10 Values. Tumor-free CDF1 male mice weighing 18-23 g were given a broad range of doses of drugs in 10% dimethyl sulfoxide-saline on either days 1, 5 and 9 or on 4 successive days. Drugs were administered intraperitoneally (ip).
The maximum tolerated doses of AMD and analogues that caused deaths in only 10% of the tested animals in 21 days were recorded as MTD. The results are an average of two experiments in each. The MTD values obtained following schedules q4d 1, 5, 9 (three injections) and qd 1-4 (four injections) are recorded in Table IV. These doses are the same as LD10 (lethal dose of 10% of tumor-free animals in 21 days).

[4] = system: human lymphoblastic leukemic cells (CCRF-CEM); assay: In vitro growth-inhibitory activity against human lymphoblastic leukemic cells (CCRF-CEM) in log phase; assay type: cell-based; conditions: for IC50: Homo sapiens
Protocol: ^b Using human lymohoblastic leukemia cells in logplastic growth.
Compounds were dissolved in Me2 So medium, final growth medium

P-388 leukemia = assay: In vivo antitumor activity against P-388 lymphocytic leukemia in CDF1 mice; conditions: for % ILS (percent increase in life span) / MST (median survival time) / cure (over 55 day survivors): days 1, 5, 9; for minimal effective dose: Mus musculus, P388, ip, read-out: MED (minimum effective dose, 40% increase in life span over control)
Protocol: Studies on in vivo activity of AMD and AMD analogues were carried out with P-388 lymphocytic leukemia in CDF1 hybrid mice. The drugs were administered either daily for 4 successive days (qd 1-4) or on days 1, 5 and 9 (q4d 1, 5, 9) beginning 1 day after tumor implantation.
^a Male CDF1 (18-23 g) mice were inoculated intraperitoneally
(ip) with 10^6 P388 cells on day 0. Drugs were administered, also ip,
in 10% dimethyl sulfoxidesaline on days 1, 5 and 9. Test solutions were
kept at 0-4° C., protected from light, and the stability and
homogeneity were checked periodically by TLC and HPLC.
^b MST = median survival time.
^c % ILS = percent increase in life span.
^d Over 55 day survivors. Average of three experiments. The
^a Drugs administed ip once daily either for 4 successive days (qd
1-4) or on days 1, 5 and 9 (q4d 1, 5 9), starting 1 day after tumor
^b MED (minimum effective dose) is the dose (milligrams/kilogram)
providing an increase in life span of 40% over control in P388

calf thymus DNA = assay: DNA binding by visible absorption and CD spectra of DNA (P)-drug complex; conditions: mole ratio DNA (P)/analogue = 10:1; 3b, 4b and 5b compared; 1.0×10^-5 M, pH 7
From the text: In FIG. 1, absorption (top) and circular dichroism (bottom) spectra in 0.01 M phosphate buffer (pH7) containing EDTA (10^-5 M) and Me2 SO (5%): 3b (...), 4b (---), 5b (--). Concentration of drug in each case was 1.0×10^-5 M. In this respect, they are almost indistinguishable from the known analogue 7-methoxyactinomycin D (5b), whose structure and physical properties we have previously reported. The absorption spectra of all these analogues in aqueous buffer are also almost superimposable. […] The absorption spectrum of the analogues above 240 nm is mainly due to the electronic configuration of the tricyclic chromophore. The CD spectrum in the same wavelength region is an indicator of peptide conformation in actinomycin analogues, because it is the peptide lactone ring that confers optical activity on the nearly planar chromophore. The nature of the CD spectra (3b, 4b and 5b) asserts that in these analogues there is an identical relationship between the chromophores and peptide lactones. This relationship is very important, because during binding to DNA, AMD and some analogues are known to rely on the cooperative role between the chromophore and the peptide lactones for their highly specific DNA-binding property.
Any change in the configurations of the peptide lactones on binding to DNA is generally expressed in the CD spectra of the analogue-DNA complexes. […] The changes in the visible absorption spectra of 3b, 4b and 5b and also their CD spectra observed after adding calf thymus DNA [mole ratio of DNA (P)/analogue=10:1] are identical (FIG. 2). In FIG. 2, the absorption (top) and CD spectra of the DNA (P)-drug complex (ratio 10:1). Concentrations, buffer and line types are as in FIG. 1.

[5] = three injections ip, q4d 1, 5, 9

Compound: Cc1c2oc3c(C)c(N)cc(C(=O)N[C@@H]4C(=O)N[C@H](C(C)C)C(=O)N5CCC[C@H]5C(=O)N(C)CC(=O)N(C)[C@@H](C(C)C)C(=O)O[C@@H]4C)c3nc-2c(C(=O)N[C@@H]2C(=O)N[C@H](C(C)C)C(=O)N3CCC[C@H]3C(=O)N(C)CC(=O)N(C)[C@@H](C(C)C)C(=O)O[C@@H]2C)c(N)c1=O [7-aminoactinomycin D]
- mode of DNA binding, same way as AMD (DNA [1]): by intercalation of the chromophore and concomitant hydrogen and hydrophobic interactions of the peptide lactones

- DNA-binding related activity (DNA [2]): no DNA-binding related activity
- Tm (ΔTm = Tm of DNA-drug complex minus Tm of DNA) (DNA [3]): 0 °C
Compound: CCN(CC)C(=O)c1c2nc3c(C(=O)N(CC)CC)ccc(C)c3oc-2c(C)c(=O)c1N [Compound 1a, reference compound]

- Tm (ΔTm = Tm of DNA-drug complex minus Tm of DNA) (DNA [3]): 0 °C
Compound: CCN(CC)C(=O)c1c2nc3c(C(=O)N(CC)CC)cc(O)c(C)c3oc-2c(C)c(=O)c1N [Compound 2a]

Compound: Cc1c2oc3c(C)c(O)cc(C(=O)N[C@@H]4C(=O)N[C@H](C(C)C)C(=O)N5CCC[C@H]5C(=O)N(C)CC(=O)N(C)[C@@H](C(C)C)C(=O)O[C@@H]4C)c3nc-2c(C(=O)N[C@@H]2C(=O)N[C@H](C(C)C)C(=O)N3CCC[C@H]3C(=O)N(C)CC(=O)N(C)[C@@H](C(C)C)C(=O)O[C@@H]2C)c(N)c1=O [Compound 2b, 7-hydroxyactinomycin D, reference compound]
- MTD (maximum tolerated dose, lethal for 10% of normal mice; = LD10) (normal CDF1 male mice; four injections ip, qd 1-4): 2.0 milligrams/kilogram
- MTD dose as multiple of the MTD dose for AMD (normal CDF1 male mice; q4d 1, 5, 9 schedule): 17 fold
- fold less toxic than AMD (normal CDF1 male mice; qd 1-4 schedule): 13 fold
- MTD (maximum tolerated dose, lethal for 10% of normal mice; = LD10) (normal CDF1 male mice; [5]): 4.2 milligrams/kilogram
- IC50 ([4]; final growth medium contained 1% Me2SO, log phase, read-out: ID50 (in vitro growth inhibition, CCRF-CEM)): 0.95 µg/mL (≈ 0.747 µM)
- % ILS (percent increase in life span) (P-388 leukemia; 0.15 mg/kg ip): 10%
- MST (median survival time) (P-388 leukemia; 0.15 mg/kg ip): 12 days
- cure (over 55 day survivors) (P-388 leukemia; 0.15 mg/kg ip): 0/7
- % ILS (percent increase in life span) (P-388 leukemia; 0.30 mg/kg ip): 55%
- MST (median survival time) (P-388 leukemia; 0.30 mg/kg ip): 17 days
- cure (over 55 day survivors) (P-388 leukemia; 0.30 mg/kg ip): 0/7
- % ILS (percent increase in life span) (P-388 leukemia; 0.60 mg/kg ip): 89%
- MST (median survival time) (P-388 leukemia; 0.60 mg/kg ip): 21 days
- cure (over 55 day survivors) (P-388 leukemia; 0.60 mg/kg ip): 0/7
- % ILS (percent increase in life span) (P-388 leukemia; 1.20 mg/kg ip): 127%
- MST (median survival time) (P-388 leukemia; 1.20 mg/kg ip): 25 days
- cure (over 55 day survivors) (P-388 leukemia; 1.20 mg/kg ip): 0/7
- % ILS (percent increase in life span) (P-388 leukemia; 1.80 mg/kg ip): 136%
- MST (median survival time) (P-388 leukemia; 1.80 mg/kg ip): 26 days
- cure (over 55 day survivors) (P-388 leukemia; 1.80 mg/kg ip): 0/7
- % ILS (percent increase in life span) (P-388 leukemia; 3.00 mg/kg ip): 37%
- MST (median survival time) (P-388 leukemia; 3.00 mg/kg ip): 15 days
- cure (over 55 day survivors) (P-388 leukemia; 3.00 mg/kg ip): 0/7
- minimal effective dose (P-388 leukemia; four injections ip, qd 1-4): 0.2 mg/kg
- minimal effective dose (P-388 leukemia; [5]): 0.275 mg/kg
- therapeutic index: MTD/MED (P-388 leukemia; four injections ip, qd 1-4): 10
- activity in respect of % ILS, 1b versus 2b (P-388 leukemia; ip, q4d 1, 5, 9): approximately equiactive
- dose higher than AMD needed for equiactivity (P-388 leukemia; ip, q4d 1, 5, 9): > 14 fold
- therapeutic index: MTD/MED (P-388 leukemia; [5]): 15
- Tm (ΔTm = Tm of DNA-drug complex minus Tm of DNA) (DNA [3]): 6.7 ± 0.15 °C
- DNA melting profile / ΔTm character of the DNA complex (DNA [3]; thermal denaturation, words): sharp and smooth

- IC50 ([4]; read-out: ID50 (the source's name)): 9 µg/mL (≈ 17.6 µM)
- Tm (ΔTm = Tm of DNA-drug complex minus Tm of DNA) (DNA [3]): 0 °C
Compound: CCN(CC)C(=O)c1c2nc3c(C(=O)N(CC)CC)cc(OCC4CO4)c(C)c3oc-2c(C)c(=O)c1N (stereo not drawn) [Compound 3a]
- fold less toxic compared to AMD and its analogues [4]: more than 1000 fold

- Tm (ΔTm = Tm of DNA-drug complex minus Tm of DNA) (DNA [3]): 0 °C
Compound: CCN(CC)C(=O)c1c2nc3c(C(=O)N(CC)CC)cc(OCC(O)CO)c(C)c3oc-2c(C)c(=O)c1N (stereo not drawn) [Compound 4a]
- fold less toxic compared to AMD and its analogues [4]: more than 1000 fold

Compound: COc1cc(C(=O)N[C@@H]2C(=O)N[C@H](C(C)C)C(=O)N3CCC[C@H]3C(=O)N(C)CC(=O)N(C)[C@@H](C(C)C)C(=O)O[C@@H]2C)c2nc3c(C(=O)N[C@@H]4C(=O)N[C@H](C(C)C)C(=O)N5CCC[C@H]5C(=O)N(C)CC(=O)N(C)[C@@H](C(C)C)C(=O)O[C@@H]4C)c(N)c(=O)c(C)c-3oc2c1C [Compound 5b, 7-methoxyactinomycin D, reference compound]
- changes in visible absorption and CD spectra after adding calf thymus DNA (calf thymus DNA): identical

Compound: Cc1c2oc3c(C)c([N+](=O)[O-])cc(C(=O)N[C@@H]4C(=O)N[C@H](C(C)C)C(=O)N5CCC[C@H]5C(=O)N(C)CC(=O)N(C)[C@@H](C(C)C)C(=O)O[C@@H]4C)c3nc-2c(C(=O)N[C@@H]2C(=O)N[C@H](C(C)C)C(=O)N3CCC[C@H]3C(=O)N(C)CC(=O)N(C)[C@@H](C(C)C)C(=O)O[C@@H]2C)c(N)c1=O [Compound 7-nitro-, 7-nitro-]
- mode of DNA binding, same way as AMD (DNA [1]): by intercalation of the chromophore and concomitant hydrogen and hydrophobic interactions of the peptide lactones
